This assay deals with HL-1 cardiomyocytes, 2-deoxyglucose injury, ATPlite viability, 2 h. Put plainly: cardiomyocyte ATP preservation under glycolysis block – HL-1 cells, 2-deoxyglucose, set 2, SAR follow-up (AID 624473).

Values joined by “and” are separate entries in the source; they are usually repeats but may differ in a detail not shown here. Equal entries are not always repeated. Active and inactive are the calls of the source.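 How the source made its calls: active means IC50 at or below 20 µM in the dose response; inactive means the rest.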

As usually defined, the IC50 is the point on the concentration scale where inhibition reaches its midpoint.

In the case of `COc1ccc(N2C(=O)c3ccccc3N3C(=O)c4c(ccc(OC)c4OC)C23)cc1` (stereo not given), the IC50 is 18.2 µM.

Take `COc1ccc2c(c1OC)C(=O)N1c3ccccc3C(=O)N(c3ccccc3)C21` (stereo not given): the IC50 was 5.09 µM.

Consider `CC(=O)c1cccc(NC(=O)c2cc(-c3ccccc3)nc3ccccc23)c1`, for which the IC50 was 14 µM.

In the case of `COc1ccc2c(c1OC)C(=O)N1c3ccccc3C(=O)N(c3cccc(C)c3)C21` (stereo not given), the half-inhibitory concentration (IC50) is 16.5 µM.

As for `CCN(CC(=O)Nc1ccc(OC)cc1)C(=O)c1cc(-c2cccs2)nn1-c1ccccc1`, the IC50 is 8.33 µM and 9.6 µM.

Regarding `COc1ccc2c(c1OC)C(=O)N1c3ccccc3C(=O)N(c3ccc(C)cc3)C21` (stereo not given), the IC50 was 3.03 µM.

Turning to `COc1cccc(CNC(=O)c2cc(-c3ccc(OC)c(OC)c3)nc3ccccc23)c1`, the IC50 was 9.42 µM.

Turning to `COc1ccc2c(c1OC)C(=O)N1c3ccccc3C(=O)N(c3ccc(C(C)(C)C)cc3)C21` (stereo not given), the IC50 was > 79 µM (inactive).

With `O=C1c2ccccc2N2C(=O)c3ccccc3C2N1c1ccccc1` (stereo not given), the IC50 was > 79 µM (inactive).

In the case of `COc1cc(-c2cc(C(=O)Nc3cccc(C)c3)c3ccccc3n2)cc(OC)c1OC`, the IC50 is > 79 µM (inactive).

Take `COc1cc(-c2cc(C(=O)Nc3cccc(F)c3)c3ccccc3n2)cc(OC)c1OC`: the IC50 was > 79 µM (inactive).

`COc1ccc2c(c1OC)C(=O)N1c3ccccc3C(=O)N(c3cccc(C(F)(F)F)c3)C21` (stereo not given): the IC50 is 19.8 µM.

With `COc1cccc(N2C(=O)c3ccccc3N3C(=O)c4ccccc4C23)c1` (stereo not given), the IC50 is > 79 µM (inactive).

As to `CCOC(=O)c1cccc(NC(=O)c2cc(-c3cc(OC)c(OC)c(OC)c3)nc3ccccc23)c1`, the IC50 is 4.29 µM.

With `COc1cc(-c2cc(C(=O)Nc3ccc(C(C)=O)cc3)c3ccccc3n2)cc(OC)c1OC`, the IC50 is 6.65 µM.

Take `O=C1c2ccccc2N2C(=O)c3ccccc3C2N1c1cccc(Br)c1` (stereo not given): the IC50 was > 79 µM (inactive).

For `COc1ccc2c(c1OC)C(=O)N1c3ccccc3C(=O)N(c3cccc(Br)c3)C21` (stereo not given), the half-inhibitory concentration (IC50) was 3.64 µM and 34.8 µM (inactive).

Turning to `COc1cccc(N2C(=O)c3ccccc3N3C(=O)c4c(ccc(OC)c4OC)C23)c1` (stereo not given), the IC50 was 15.6 µM.

For the molecule `COc1ccc2c(c1OC)C(=O)N1c3ccccc3C(=O)N(c3cccc(Cl)c3)C21` (stereo not given), the IC50 was 7.57 µM.

Take `COc1cccc(CNC(=O)c2cc(-c3cc(OC)c(OC)c(OC)c3)nc3ccccc23)c1`: the IC50 is 12.2 µM.

Take `COc1ccc(-c2cc(C(=O)Nc3cccc(C(C)=O)c3)c3ccccc3n2)cc1`: the IC50 was > 79 µM (inactive).

`COc1cccc(NC(=O)c2cc(-c3cc(OC)c(OC)c(OC)c3)nc3ccccc23)c1`: the IC50 was > 79 µM (inactive).

`COc1ccc2c(c1OC)C(=O)N1c3ccccc3C(=O)N(c3cccc(F)c3)C21` (stereo not given): the IC50 was 13.9 µM.

`COc1cc(-c2cc(C(=O)Nc3cccc(C(F)(F)F)c3)c3ccccc3n2)cc(OC)c1OC`: the IC50 was > 79 µM (inactive).

In the case of `COc1ccc(-c2cc(C(=O)Nc3cccc(C(C)=O)c3)c3ccccc3n2)cc1OC`, the IC50 is 19.8 µM (inactive).

As to `COc1ccc2c(c1OC)C(=O)N1c3ccccc3C(=O)N(Cc3cccc(Cl)c3)C21` (stereo not given), the IC50 was 8.52 µM.

In the case of `COc1ccc(NC(=O)c2cc(-c3cc(OC)c(OC)c(OC)c3)nc3ccccc23)cc1`, the IC50 is > 79 µM (inactive).

With `CCN(CC(=O)Nc1ccc(OC)cc1)C(=O)c1cc(-c2cc(OC)c(OC)c(OC)c2)nc2ccccc12`, the IC50 was 22.6 µM (inactive).

`COc1cc(-c2cc(C(=O)Nc3cccc(C(C)=O)c3)c3cc(Cl)ccc3n2)cc(OC)c1OC`: the IC50 is > 79 µM (inactive).

As to `COc1cc(-c2cc(C(=O)Nc3cccc(Cl)c3)c3ccccc3n2)cc(OC)c1OC`, the IC50 is > 79 µM (inactive).

Take `COc1ccc2c(c1OC)C(=O)N1c3ccccc3C(=O)N(Cc3ccccc3Cl)C21` (stereo not given): the IC50 was 4 µM.

For `COc1cc(-c2cc(C(=O)Nc3cccc(C(C)=O)c3)c3ccccc3n2)cc(OC)c1OC`, the IC50 is 7.15 µM and 10.3 µM.

With `COc1cccc(-c2cc(C(=O)Nc3cccc(C(C)=O)c3)c3ccccc3n2)c1`, the IC50 is 9.47 µM.

Turning to `COc1ccc2c(c1OC)C(=O)N1c3ccccc3C(=O)N(c3ccc(Br)cc3)C21` (stereo not given), the IC50 was 1.95 µM.

For the molecule `COc1cc(-c2cc(C(=O)Nc3ccccc3)c3ccccc3n2)cc(OC)c1OC`, the IC50 was 8.04 µM.

(Values after PubChem BioAssay AID624473 (Sanford-Burnham Center for Chemical Genomics, 2012).)
